Values joined by “and” are separate entries in the source; they are usually repeats but may differ in a detail not shown here. Equal entries are not always repeated. Active and inactive are the calls of the source. The rule behind the calls is not given here.

In this data set the test system is rodent lifetime carcinogenesis bioassay, tumor incidence TD50. The data set is described as follows: chronic cancer bioassays in animals – CPDB, compiled studies (AID 1745844).
The mark [1] stands for this setting: rat, strain Sprague-Dawley, females, by gavage, site: liver, lesion: hepatocellular carcinoma, dosed 52 weeks, study length 65 weeks.

With `CC(=O)NNc1ccccc1`, the TD50 (usually the 50% point of the dose-response relation for the toxic effect studied) reads like this: (mouse, strain Swiss albino, females, in drinking water, site: blood vessels, lesion: angioma, dosed 111 weeks, study length 111 weeks) 117 mg/kg/day; (mouse, strain Swiss albino, females, in drinking water, site: blood vessels, lesion: angiosarcoma, dosed 111 weeks, study length 111 weeks) 117 mg/kg/day; (mouse, strain Swiss albino, females, in drinking water, site: blood vessels, lesion: several types, types named in the paper, dosed 111 weeks, study length 111 weeks) 49 mg/kg/day; (mouse, strain Swiss albino, females, in drinking water, site: liver, lesion: angioma, dosed 111 weeks, study length 111 weeks) 105 mg/kg/day; (mouse, strain Swiss albino, females, in drinking water, site: liver, lesion: angiosarcoma, dosed 111 weeks, study length 111 weeks) 105 mg/kg/day; (mouse, strain Swiss albino, females, in drinking water, site: liver, lesion: several types, types named in the paper, dosed 111 weeks, study length 111 weeks) 44.8 mg/kg/day. Also, the TD50 by setting is: (mouse, strain Swiss albino, females, in drinking water, site: lung, lesion: adenoma, dosed 111 weeks, study length 111 weeks) 413 mg/kg/day (inactive); (mouse, strain Swiss albino, males, in drinking water, site: blood vessels, lesion: angioma, dosed 106 weeks, study length 106 weeks) 113 mg/kg/day; (mouse, strain Swiss albino, males, in drinking water, site: blood vessels, lesion: angiosarcoma, dosed 106 weeks, study length 106 weeks) 161 mg/kg/day; (mouse, strain Swiss albino, males, in drinking water, site: blood vessels, lesion: several types, types named in the paper, dosed 106 weeks, study length 106 weeks) 59.8 mg/kg/day; (mouse, strain Swiss albino, males, in drinking water, site: liver, lesion: angioma, dosed 106 weeks, study length 106 weeks) 128 mg/kg/day; (mouse, strain Swiss albino, males, in drinking water, site: liver, lesion: angiosarcoma, dosed 106 weeks, study length 106 weeks) 146 mg/kg/day. Further, where the note is “mouse, strain Swiss albino, males, in drinking water, site: liver, lesion: several types, types named in the paper, dosed 106 weeks, study length 106 weeks”, the TD50 is 62.1 mg/kg/day. Besides, the carcinogen call (mouse, strain Swiss albino, males, in drinking water, site: lung, lesion: adenocarcinoma, dosed 106 weeks, study length 106 weeks) was “negative (inactive)” and the carcinogen call (mouse, strain Swiss albino, males, in drinking water, site: lung, lesion: adenoma, dosed 106 weeks, study length 106 weeks) was “negative (inactive)”.
For the compound `Clc1cccc(-c2cc(Cl)cc(Cl)c2)c1`, the TD50 is 59.3 mg/kg/day (rat, strain Sprague-Dawley, females, in feed, site: liver, lesion: hepatocellular adenoma, dosed 104 weeks, study length 104 weeks); 598 mg/kg/day (rat, strain Sprague-Dawley, females, in feed, site: liver, lesion: hepatocellular carcinoma, dosed 104 weeks, study length 104 weeks); 53.9 mg/kg/day (rat, strain Sprague-Dawley, females, in feed, site: liver, lesion: several types, types named in the paper, dosed 104 weeks, study length 104 weeks); 872 mg/kg/day (rat, strain Sprague-Dawley, males, in feed, site: liver, lesion: several types, types named in the paper, dosed 104 weeks, study length 104 weeks).
For the compound `CN(C)C(=S)S[Se](SC(=S)N(C)C)(SC(=S)N(C)C)SC(=S)N(C)C`, the carcinogen call is “negative (inactive)” (mouse, strain B6AKF1, females, oral dosing, site: any site (literature study), lesion: several types, types named in the paper, dosed 76 weeks, study length 76 weeks); “negative (inactive)” (mouse, strain B6AKF1, females, oral dosing, site: liver, lesion: hepatoma, dosed 76 weeks, study length 76 weeks); “negative (inactive)” (mouse, strain B6AKF1, females, oral dosing, site: lung, lesion: adenoma, dosed 76 weeks, study length 76 weeks); “negative (inactive)” (mouse, strain B6AKF1, males, oral dosing, site: any site (literature study), lesion: several types, types named in the paper, dosed 76 weeks, study length 76 weeks); “negative (inactive)” (mouse, strain B6AKF1, males, oral dosing, site: liver, lesion: hepatoma, dosed 76 weeks, study length 76 weeks); “negative (inactive)” (mouse, strain B6AKF1, males, oral dosing, site: lung, lesion: adenoma, dosed 76 weeks, study length 76 weeks). Also, the carcinogen call (mouse, strain B6C3F1, females, oral dosing, site: any site (literature study), lesion: one or several types, types not named, dosed 76 weeks, study length 76 weeks) is “negative (inactive)”; the carcinogen call (mouse, strain B6C3F1, females, oral dosing, site: liver, lesion: hepatoma, dosed 76 weeks, study length 76 weeks) is “negative (inactive)”; the carcinogen call (mouse, strain B6C3F1, females, oral dosing, site: lung, lesion: several types, types named in the paper, dosed 76 weeks, study length 76 weeks) was “negative (inactive)”; the carcinogen call (mouse, strain B6C3F1, males, oral dosing, site: lung, lesion: several types, types named in the paper, dosed 76 weeks, study length 76 weeks) is “negative (inactive)”. Further, the TD50 runs as follows: (mouse, strain B6C3F1, males, oral dosing, site: any site (literature study), lesion: several types, types named in the paper, dosed 76 weeks, study length 76 weeks) 5.88 mg/kg/day (inactive); (mouse, strain B6C3F1, males, oral dosing, site: liver, lesion: hepatoma, dosed 76 weeks, study length 76 weeks) 26 mg/kg/day (inactive).
As to `CC/C(=C(\c1ccccc1)c1ccc(OCCN(C)C)cc1)c1ccccc1`, the TD50 was 3 mg/kg/day (mouse, strain AP Alderly Park, females, several routes, site: ovary, lesion: granulosa-cell adenoma, dosed 65 weeks, study length 65 weeks); 8.18 mg/kg/day (mouse, strain AP Alderly Park, males, several routes, site: testis, lesion: interstitial-cell adenoma, dosed 65 weeks, study length 65 weeks); 9.8 mg/kg/day (mouse, strain AP Alderly Park, males, several routes, site: testis, lesion: interstitial-cell tumor, dosed 56 weeks, study length 56 weeks); 101 mg/kg/day (inactive) (mouse, strain B6C3F1, females, in feed, site: liver, lesion: hepatocellular adenoma, dosed 104 weeks, study length 104 weeks); 706 mg/kg/day (rat, strain Alpk:APfSD, females, by gavage, site: liver, lesion: biliary cystadenoma, dosed 88 weeks, study length 107 weeks); 2260 mg/kg/day (rat, strain Alpk:APfSD, females, by gavage, site: liver, lesion: cholangioma, dosed 88 weeks, study length 107 weeks). The TD50 runs as follows: (rat, strain Alpk:APfSD, females, by gavage, site: liver, lesion: hepatocellular adenoma, dosed 88 weeks, study length 107 weeks) 135 mg/kg/day; (rat, strain Alpk:APfSD, females, by gavage, site: liver, lesion: hepatocellular carcinoma, dosed 88 weeks, study length 107 weeks) 17 mg/kg/day; (rat, strain Alpk:APfSD, females, by gavage, site: liver, lesion: hepatocholangiocarcinoma, dosed 88 weeks, study length 107 weeks) 241 mg/kg/day; (rat, strain Alpk:APfSD, males, by gavage, site: liver, lesion: biliary cystadenoma, dosed 88 weeks, study length 107 weeks) 1100 mg/kg/day; (rat, strain Alpk:APfSD, males, by gavage, site: liver, lesion: hepatocellular adenoma, dosed 88 weeks, study length 107 weeks) 47.9 mg/kg/day; (rat, strain Alpk:APfSD, males, by gavage, site: liver, lesion: hepatocellular carcinoma, dosed 88 weeks, study length 107 weeks) 18.7 mg/kg/day. Also, the TD50 reads like this: (rat, strain Alpk:APfSD, males, by gavage, site: liver, lesion: hepatocholangiocarcinoma, dosed 88 weeks, study length 107 weeks) 306 mg/kg/day; (rat, strain Charles River CD (Sprague-Dawley), females, by gavage, site: liver, lesion: hepatocellular adenoma, dosed 51 weeks, study length 65 weeks) 7.77 mg/kg/day; (rat, strain Charles River CD (Sprague-Dawley), females, by gavage, site: liver, lesion: hepatocellular adenoma, dosed 52 weeks, study length 65 weeks) 4.35 mg/kg/day; (rat, strain Charles River CD (Sprague-Dawley), females, by gavage, site: liver, lesion: hepatocellular carcinoma, dosed 51 weeks, study length 65 weeks) 7.77 mg/kg/day; (rat, strain Charles River CD (Sprague-Dawley), females, by gavage, site: liver, lesion: hepatocellular carcinoma, dosed 52 weeks, study length 52 weeks) 2.12 mg/kg/day and 10.3 mg/kg/day; (rat, strain Charles River CD (Sprague-Dawley), females, by gavage, site: liver, lesion: hepatocellular carcinoma, dosed 52 weeks, study length 65 weeks) 4.62 mg/kg/day. Also, the TD50 is 1.44 mg/kg/day (rat, strain Charles River CD (Sprague-Dawley), females, by gavage, site: liver, lesion: several types, types named in the paper, dosed 52 weeks, study length 52 weeks); 3.86 mg/kg/day (rat, strain Charles River CD (Sprague-Dawley), females, by gavage, site: liver, lesion: several types, types named in the paper, dosed 52 weeks, study length 65 weeks); 4.18 mg/kg/day (rat, strain Fischer 344/Tox, females, in feed, site: liver, lesion: hepatocellular carcinoma, dosed 86 weeks, study length 86 weeks); 1.38 mg/kg/day (rat, strain Lewis, females, in feed, site: liver, lesion: hepatocellular carcinoma, dosed 48 weeks, study length 48 weeks); 88.7 mg/kg/day (rat, strain Sprague-Dawley, females, by gavage, site: any site (literature study), lesion: malignant tumor, dosed 167 weeks, study length 167 weeks); 497 mg/kg/day (rat, strain Sprague-Dawley, females, by gavage, site: liver, lesion: hepatocellular adenoma, dosed 167 weeks, study length 167 weeks). For the same compound, the TD50 runs as follows: (rat, strain Sprague-Dawley, females, by gavage, site: liver, lesion: hepatocellular carcinoma, dosed 52 weeks, study length 52 weeks) 11.8 mg/kg/day and 7.56 mg/kg/day and 4.79 mg/kg/day; under setting [1], 18.9 mg/kg/day and 6 mg/kg/day; (rat, strain Sprague-Dawley, females, by gavage, site: liver, lesion: hepatocellular carcinoma, dosed 167 weeks, study length 167 weeks) 164 mg/kg/day; (rat, strain Sprague-Dawley, females, by gavage, site: uterus, lesion: fibroma, dosed 167 weeks, study length 167 weeks) 247 mg/kg/day; (rat, strain Sprague-Dawley, females, by gavage, site: uterus, lesion: sarcoma, dosed 167 weeks, study length 167 weeks) 487 mg/kg/day; (rat, strain Sprague-Dawley, females, by gavage, site: uterus, lesion: squamous-cell carcinoma, dosed 167 weeks, study length 167 weeks) 497 mg/kg/day. Further, the TD50 (rat, strain Sprague-Dawley, females, by gavage, site: vagina, lesion: squamous-cell carcinoma, dosed 167 weeks, study length 167 weeks) is 497 mg/kg/day; the TD50 (rat, strain Sprague-Dawley, males, by gavage, site: any site (literature study), lesion: malignant tumor, dosed 167 weeks, study length 167 weeks) was 187 mg/kg/day; the TD50 (rat, strain Sprague-Dawley, males, by gavage, site: liver, lesion: hepatocellular adenoma, dosed 167 weeks, study length 167 weeks) came to 497 mg/kg/day; the TD50 (rat, strain Sprague-Dawley, males, by gavage, site: liver, lesion: hepatocellular carcinoma, dosed 167 weeks, study length 167 weeks) was 247 mg/kg/day; the TD50 (rat, strain Sprague-Dawley, males, by gavage, site: mammary tissue, wider than the gland, lesion: adenocarcinoma, dosed 167 weeks, study length 167 weeks) came to 247 mg/kg/day; the TD50 (rat, strain Sprague-Dawley, males, by gavage, site: mammary tissue, wider than the gland, lesion: benign tumor, dosed 167 weeks, study length 167 weeks) was 96.4 mg/kg/day. Also, under “rat, strain Wistar/LAC-P, females, in feed, site: liver, lesion: hepatocellular carcinoma, dosed 49 weeks, study length 49 weeks”, the TD50 was 1.36 mg/kg/day. Also, the carcinogen call was “negative (inactive)” (mouse, strain B6C3F1, females, in feed, site: lung, lesion: alveolar-cell carcinoma, dosed 104 weeks, study length 104 weeks); “negative (inactive)” (mouse, strain B6C3F1, females, in feed, site: uterus, lesion: leiomyoma, dosed 104 weeks, study length 104 weeks); “negative (inactive)” (mouse, strain C57BL/6, females, in feed, site: liver, lesion: hepatocellular carcinoma, dosed 52 weeks, study length 52 weeks); “negative (inactive)” (mouse, strain DBA/2, females, in feed, site: liver, lesion: hepatocellular carcinoma, dosed 52 weeks, study length 52 weeks); “positive” under setting [1]; “positive” (rat, strain Sprague-Dawley, females, by gavage, site: liver, lesion: several types, types named in the paper, dosed 52 weeks, study length 52 weeks).

The values above are taken from PubChem BioAssay AID1745844 (Carcinogenic Potency Database (CPDB), 2022).
